The target of one assay is T1, Phospholipase D1 (Homo sapiens, UniProt Q13393).
T1 sequence (Q13393 whole entry): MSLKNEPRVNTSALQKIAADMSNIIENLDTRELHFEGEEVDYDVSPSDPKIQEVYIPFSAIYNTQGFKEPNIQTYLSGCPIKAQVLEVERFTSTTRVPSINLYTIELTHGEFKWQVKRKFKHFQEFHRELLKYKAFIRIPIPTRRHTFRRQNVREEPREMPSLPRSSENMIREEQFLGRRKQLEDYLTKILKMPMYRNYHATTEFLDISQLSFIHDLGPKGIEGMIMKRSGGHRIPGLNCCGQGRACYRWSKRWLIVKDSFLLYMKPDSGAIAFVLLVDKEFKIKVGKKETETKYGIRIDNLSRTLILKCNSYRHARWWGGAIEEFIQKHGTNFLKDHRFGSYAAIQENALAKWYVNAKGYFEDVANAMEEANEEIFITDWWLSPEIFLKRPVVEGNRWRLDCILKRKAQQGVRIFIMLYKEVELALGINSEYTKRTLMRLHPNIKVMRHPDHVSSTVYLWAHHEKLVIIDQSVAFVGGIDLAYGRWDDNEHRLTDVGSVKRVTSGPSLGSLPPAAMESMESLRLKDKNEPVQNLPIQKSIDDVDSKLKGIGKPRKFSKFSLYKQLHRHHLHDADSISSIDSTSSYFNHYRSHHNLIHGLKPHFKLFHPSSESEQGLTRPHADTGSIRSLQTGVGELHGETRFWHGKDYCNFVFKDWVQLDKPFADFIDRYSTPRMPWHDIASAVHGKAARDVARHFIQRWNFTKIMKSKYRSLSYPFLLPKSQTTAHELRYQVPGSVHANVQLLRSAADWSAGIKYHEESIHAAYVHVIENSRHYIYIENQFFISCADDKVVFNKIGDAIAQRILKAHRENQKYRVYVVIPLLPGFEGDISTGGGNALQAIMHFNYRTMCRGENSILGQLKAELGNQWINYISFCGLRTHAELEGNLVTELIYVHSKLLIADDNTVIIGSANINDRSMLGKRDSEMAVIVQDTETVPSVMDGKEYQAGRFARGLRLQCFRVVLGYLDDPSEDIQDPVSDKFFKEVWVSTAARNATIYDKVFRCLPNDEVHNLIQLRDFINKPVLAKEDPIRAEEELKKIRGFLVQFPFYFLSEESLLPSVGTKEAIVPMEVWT
Put plainly: cellular phospholipase D1 inhibition IC50 – cell-based, dose response (AID 602151).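 Note: cellular PLD1 assay in Calu-1 cells stimulated with PMA.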 The format is functional.

In the next assay the target is Phospholipase D2 (Homo sapiens, UniProt O14939). Nature of the assay: cellular phospholipase D2 inhibition IC50 – cell-based, dose response (AID 602147).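 Note: cellular assay in HEK293 cells overexpressing GFP-tagged PLD2.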 Format: functional.
In the next assay the target is Ion channel NompC (Danio rerio, UniProt Q7T1G6). Nature of the assay: Dose response cell-based high-throughput screening assay for agonists of the transient receptor potential channel N1 (TRPN1). [Related pubchem assays (depositor defined):AID1424, AID1448]. Format: functional.
Another assay has as its target T2, Mucolipin-3 (Homo sapiens, UniProt Q8TDD5).
T2 sequence (Q8TDD5 whole entry): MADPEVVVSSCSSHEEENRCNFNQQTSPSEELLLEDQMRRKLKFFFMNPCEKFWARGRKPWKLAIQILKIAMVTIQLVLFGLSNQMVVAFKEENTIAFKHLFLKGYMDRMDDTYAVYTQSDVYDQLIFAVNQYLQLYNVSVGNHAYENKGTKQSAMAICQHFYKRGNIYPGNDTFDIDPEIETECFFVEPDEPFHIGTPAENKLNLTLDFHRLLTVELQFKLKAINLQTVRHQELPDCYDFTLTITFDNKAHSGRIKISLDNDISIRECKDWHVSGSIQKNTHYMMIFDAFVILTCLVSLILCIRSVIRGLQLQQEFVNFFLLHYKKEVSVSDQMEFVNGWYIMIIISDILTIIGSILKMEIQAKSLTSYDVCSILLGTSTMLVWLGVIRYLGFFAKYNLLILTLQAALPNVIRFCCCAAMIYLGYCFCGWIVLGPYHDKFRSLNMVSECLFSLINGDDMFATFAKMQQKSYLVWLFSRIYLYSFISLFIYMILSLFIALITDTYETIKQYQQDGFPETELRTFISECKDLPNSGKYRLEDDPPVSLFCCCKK
Nature of the assay: Fluorescence counterscreen assay for […] agonists: dose response cell-based high-throughput screening assay to identify agonists of the transient receptor potential channel ML3 (TRPML3). [Related pubchem assays: 1424, 1448 ]. The format is functional.

The subject of assay [1] is Streptococcus sp. 'group A'. Put plainly: Streptococcus pyogenes SK(-)GAS viability under kanamycin – luminescence, BacTiterGlo, confirmation, counter-screen for streptokinase expression inhibitor project, dose response (AID 1900). The format is functional, organism-based. (In general: A counterscreen serves to expose hits that act by an unwanted route or on another target.)

The next assay concerns Streptococcus. Put plainly: GAS UMAA2166 growth inhibition – luminescence, BacTiterGlo, counter-screen for streptokinase expression inhibitor project, dose response (AID 1915).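 Note: potency for reduction of bacterial viability or growth.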 Format: functional, organism-based.
The test system of another assay is Vero. Nature of the assay: viability of Vero cells under compound – cytotoxicity control for flavivirus capping enzyme inhibitors (AID 588742). The format is functional. Conditions: Chlorocebus sabaeus.
A further assay relates to INS1. Put plainly: INS-1E survival protection against cytokine death – cell-based, luminescence, retest, dose response (AID 449756).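 Note: cell death triggered by IL-1 beta plus TNF-alpha plus IFN-gamma mixture; protective hits raise ATP signal compared with cytokine alone wells.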 The format is functional. The conditions noted are these: Rattus norvegicus.
Assay [2] in a line: viability loss in THP-1 monocytes – THP-1 cells, cytotoxicity control for Vif-APOBEC3G degradation inhibitor project, dose response (AID 1117359). Format: functional. The conditions noted are these: THP-1.
In a further assay the target is Beta-galactosidase (Escherichia coli, UniProt Q8VNN2). Nature of the assay: PubChem AID 485352. Format: functional.
The target of assay [3] is T3, Type-1 angiotensin II receptor (Homo sapiens, UniProt P30556).
T3 sequence (P30556 whole entry): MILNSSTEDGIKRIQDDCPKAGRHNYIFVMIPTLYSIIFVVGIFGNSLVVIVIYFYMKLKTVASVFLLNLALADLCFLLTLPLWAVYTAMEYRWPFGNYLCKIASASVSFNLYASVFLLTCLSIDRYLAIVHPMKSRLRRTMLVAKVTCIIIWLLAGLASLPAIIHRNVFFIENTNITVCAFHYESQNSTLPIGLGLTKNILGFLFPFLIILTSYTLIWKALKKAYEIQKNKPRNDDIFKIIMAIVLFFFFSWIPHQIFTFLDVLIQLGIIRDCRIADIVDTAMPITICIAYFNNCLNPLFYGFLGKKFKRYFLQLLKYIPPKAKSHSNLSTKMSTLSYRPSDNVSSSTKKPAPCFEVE
Nature of the assay: antagonism of angiotensin II type 1 receptor – cell-based, uHTS hits, selectivity assay for APJ receptor antagonist project, dose response (AID 463214).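 Note: antagonist potency against angiotensin II stimulated AT1 response.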 The format is functional.

Another assay addresses T4, Hexokinase HKDC1 (Homo sapiens, UniProt Q2TB90).
T4 sequence (Q2TB90 whole entry): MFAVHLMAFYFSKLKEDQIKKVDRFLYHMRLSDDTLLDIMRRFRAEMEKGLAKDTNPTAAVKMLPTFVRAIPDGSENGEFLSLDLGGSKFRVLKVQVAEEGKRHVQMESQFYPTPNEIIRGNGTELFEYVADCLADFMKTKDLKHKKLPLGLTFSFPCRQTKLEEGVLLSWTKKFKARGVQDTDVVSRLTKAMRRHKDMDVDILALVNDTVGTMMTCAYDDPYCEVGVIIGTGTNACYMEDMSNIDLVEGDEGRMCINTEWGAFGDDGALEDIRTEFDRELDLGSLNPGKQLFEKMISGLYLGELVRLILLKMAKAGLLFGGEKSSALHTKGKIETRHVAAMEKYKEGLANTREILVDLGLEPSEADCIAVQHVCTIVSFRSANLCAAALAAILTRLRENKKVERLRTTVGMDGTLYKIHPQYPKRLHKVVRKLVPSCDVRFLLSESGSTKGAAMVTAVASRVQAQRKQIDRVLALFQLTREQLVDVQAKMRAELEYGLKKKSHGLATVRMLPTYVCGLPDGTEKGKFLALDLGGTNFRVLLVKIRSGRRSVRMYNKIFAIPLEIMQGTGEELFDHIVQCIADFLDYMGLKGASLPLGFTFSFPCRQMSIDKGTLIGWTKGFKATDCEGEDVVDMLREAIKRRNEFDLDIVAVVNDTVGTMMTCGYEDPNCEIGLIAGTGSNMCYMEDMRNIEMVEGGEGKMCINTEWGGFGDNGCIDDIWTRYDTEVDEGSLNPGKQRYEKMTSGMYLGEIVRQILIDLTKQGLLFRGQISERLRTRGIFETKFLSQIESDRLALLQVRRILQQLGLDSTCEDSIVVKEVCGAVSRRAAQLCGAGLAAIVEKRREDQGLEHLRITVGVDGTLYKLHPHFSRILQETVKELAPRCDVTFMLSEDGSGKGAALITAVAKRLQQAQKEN
Nature of the assay: inhibition of HKDC1 glucose phosphorylation – biochemical, W721R variant, dose response (AID 504729). Format: functional.

The target of the next assay is Genome polyprotein (dengue virus type 2, UniProt P29990). Nature of the assay: flavivirus cap methylation enzyme inhibition – biochemical, confirmation dose response, primary screen (AID 588689). Format: functional.
In assay [4] the target is T5, Tyrosyl-DNA phosphodiesterase 2 (Homo sapiens, UniProt O95551).
T5 sequence (O95551 whole entry): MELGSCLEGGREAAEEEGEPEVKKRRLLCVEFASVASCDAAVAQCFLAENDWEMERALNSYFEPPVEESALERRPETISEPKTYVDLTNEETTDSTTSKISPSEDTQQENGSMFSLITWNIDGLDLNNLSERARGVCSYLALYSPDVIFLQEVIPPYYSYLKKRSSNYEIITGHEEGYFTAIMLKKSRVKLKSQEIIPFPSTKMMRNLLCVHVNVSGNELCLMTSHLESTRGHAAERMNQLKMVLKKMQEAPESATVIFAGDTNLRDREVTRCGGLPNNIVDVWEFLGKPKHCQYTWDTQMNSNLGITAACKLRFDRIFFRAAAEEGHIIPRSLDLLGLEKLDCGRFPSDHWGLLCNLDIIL
Nature of the assay: potency against TDP2 phosphodiesterase activity – biochemical, epi absorbance, IC50, dose response (AID 743297).

A short description of assay [5]: viability of PTEN-deleted HCT116 cells – cell-based, HCT116 PTEN knockout, dose response (AID 1047).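 Note: HCT116 colon tumor cells with PTEN knocked out; cells exposed to compound for 60 hours before readout; potency for loss of cell viability measured by luminescence.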 The format is functional.
Assay [6] can be described thus: viability of HCT116 lacking mutant beta-catenin – cell-based, human colon tumor, dose response (AID 1045).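 Note: HCT116 colon tumor cells with beta catenin knocked out; cells exposed to compound for 60 hours.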 The format is functional.
Assay [7] in a line: THP-1 cell cytotoxicity, dose response, cytotoxicity control for non-replicating M. tuberculosis project (AID 489025). Format: functional.
Assay [8] is described as follows: Vero E6 cell cytotoxicity, dose response, cytotoxicity control for non-replicating M. tuberculosis project, secondary assay (AID 492998). Conditions: Vero C1008. The format is functional, VeroE6.
A further assay in a line: cells. Format: functional.
The next assay deals with T6, CAAX prenyl protease 2 (Homo sapiens, UniProt Q9Y256).
T6 sequence (Q9Y256 whole entry): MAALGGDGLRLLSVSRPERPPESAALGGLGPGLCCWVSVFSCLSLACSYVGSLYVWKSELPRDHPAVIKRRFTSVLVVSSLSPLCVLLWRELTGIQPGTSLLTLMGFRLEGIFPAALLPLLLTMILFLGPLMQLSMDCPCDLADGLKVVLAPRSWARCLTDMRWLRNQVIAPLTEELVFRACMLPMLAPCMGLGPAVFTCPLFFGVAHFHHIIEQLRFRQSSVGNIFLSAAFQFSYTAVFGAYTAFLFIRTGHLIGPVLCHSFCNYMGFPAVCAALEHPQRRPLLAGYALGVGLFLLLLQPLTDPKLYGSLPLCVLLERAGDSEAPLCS
Nature of the assay: inhibition of Ras-converting CAAX protease Rce1 – biochemical, yeast membranes, quenched-peptide fluorescence, cherry-pick, dose response (AID 588849).

The term IC50 denotes the concentration at which inhibition is half-maximal. Broadly, the EC50 is the concentration at which the effect is half-maximal. As usually defined, the CC50 is the concentration giving 50% cytotoxicity. As a reminder, the AC50 is the concentration at which the activity in the assay is half-maximal.

Calls of active or inactive are those of the source. Bounds are passed on as bounds.

Sequence of Phospholipase D2 (O14939 whole entry): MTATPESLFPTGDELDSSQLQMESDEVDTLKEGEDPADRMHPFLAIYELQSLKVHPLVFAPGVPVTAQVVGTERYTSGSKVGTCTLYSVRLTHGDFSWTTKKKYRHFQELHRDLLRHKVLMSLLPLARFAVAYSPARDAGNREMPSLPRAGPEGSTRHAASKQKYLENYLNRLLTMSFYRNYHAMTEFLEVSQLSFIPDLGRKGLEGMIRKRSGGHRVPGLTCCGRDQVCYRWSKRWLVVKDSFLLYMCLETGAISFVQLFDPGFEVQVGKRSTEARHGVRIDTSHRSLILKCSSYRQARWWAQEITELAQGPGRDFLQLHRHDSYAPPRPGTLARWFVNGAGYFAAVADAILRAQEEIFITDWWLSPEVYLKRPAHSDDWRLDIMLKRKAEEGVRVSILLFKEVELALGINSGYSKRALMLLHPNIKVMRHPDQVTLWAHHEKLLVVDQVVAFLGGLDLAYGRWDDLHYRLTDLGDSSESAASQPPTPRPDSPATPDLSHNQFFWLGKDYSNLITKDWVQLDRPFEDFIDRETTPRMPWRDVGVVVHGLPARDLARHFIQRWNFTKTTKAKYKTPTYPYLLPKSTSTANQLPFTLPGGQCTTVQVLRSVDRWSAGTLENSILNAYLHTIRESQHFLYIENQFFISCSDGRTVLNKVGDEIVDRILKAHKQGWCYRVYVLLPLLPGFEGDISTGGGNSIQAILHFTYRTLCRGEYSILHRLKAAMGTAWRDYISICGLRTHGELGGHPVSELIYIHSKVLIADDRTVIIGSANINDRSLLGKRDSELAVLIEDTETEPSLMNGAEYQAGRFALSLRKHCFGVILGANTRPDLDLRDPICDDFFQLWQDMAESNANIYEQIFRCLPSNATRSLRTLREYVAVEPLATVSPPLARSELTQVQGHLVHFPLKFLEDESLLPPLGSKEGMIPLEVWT
Sequence of Beta-galactosidase (Q8VNN2 whole entry): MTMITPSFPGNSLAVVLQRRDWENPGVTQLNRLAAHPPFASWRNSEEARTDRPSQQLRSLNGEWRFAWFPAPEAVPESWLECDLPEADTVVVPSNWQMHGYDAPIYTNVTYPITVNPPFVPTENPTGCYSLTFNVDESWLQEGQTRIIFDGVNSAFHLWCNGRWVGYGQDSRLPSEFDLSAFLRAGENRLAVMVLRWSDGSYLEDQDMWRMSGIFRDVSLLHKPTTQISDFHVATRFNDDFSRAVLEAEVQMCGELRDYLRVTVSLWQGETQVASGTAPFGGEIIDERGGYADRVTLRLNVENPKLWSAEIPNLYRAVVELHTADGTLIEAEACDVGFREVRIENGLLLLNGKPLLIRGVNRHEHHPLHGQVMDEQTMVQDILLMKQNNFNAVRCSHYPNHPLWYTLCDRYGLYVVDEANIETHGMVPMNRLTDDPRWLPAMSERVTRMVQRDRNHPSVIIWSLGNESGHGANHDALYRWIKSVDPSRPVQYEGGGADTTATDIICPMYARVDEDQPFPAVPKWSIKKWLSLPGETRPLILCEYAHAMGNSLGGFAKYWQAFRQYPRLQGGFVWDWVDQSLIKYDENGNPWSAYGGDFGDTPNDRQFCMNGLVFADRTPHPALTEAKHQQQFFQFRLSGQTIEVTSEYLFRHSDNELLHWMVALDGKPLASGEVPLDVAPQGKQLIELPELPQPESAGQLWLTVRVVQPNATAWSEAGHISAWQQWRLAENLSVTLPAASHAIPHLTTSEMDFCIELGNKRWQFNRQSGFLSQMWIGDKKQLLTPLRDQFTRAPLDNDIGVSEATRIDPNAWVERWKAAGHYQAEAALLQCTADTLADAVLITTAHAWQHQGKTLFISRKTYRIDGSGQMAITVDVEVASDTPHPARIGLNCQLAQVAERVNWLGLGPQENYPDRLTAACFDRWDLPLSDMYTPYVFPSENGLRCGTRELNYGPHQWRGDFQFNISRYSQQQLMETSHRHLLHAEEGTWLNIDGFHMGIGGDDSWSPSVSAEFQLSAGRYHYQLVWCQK
Sequence of Ion channel NompC (Q7T1G6 whole entry): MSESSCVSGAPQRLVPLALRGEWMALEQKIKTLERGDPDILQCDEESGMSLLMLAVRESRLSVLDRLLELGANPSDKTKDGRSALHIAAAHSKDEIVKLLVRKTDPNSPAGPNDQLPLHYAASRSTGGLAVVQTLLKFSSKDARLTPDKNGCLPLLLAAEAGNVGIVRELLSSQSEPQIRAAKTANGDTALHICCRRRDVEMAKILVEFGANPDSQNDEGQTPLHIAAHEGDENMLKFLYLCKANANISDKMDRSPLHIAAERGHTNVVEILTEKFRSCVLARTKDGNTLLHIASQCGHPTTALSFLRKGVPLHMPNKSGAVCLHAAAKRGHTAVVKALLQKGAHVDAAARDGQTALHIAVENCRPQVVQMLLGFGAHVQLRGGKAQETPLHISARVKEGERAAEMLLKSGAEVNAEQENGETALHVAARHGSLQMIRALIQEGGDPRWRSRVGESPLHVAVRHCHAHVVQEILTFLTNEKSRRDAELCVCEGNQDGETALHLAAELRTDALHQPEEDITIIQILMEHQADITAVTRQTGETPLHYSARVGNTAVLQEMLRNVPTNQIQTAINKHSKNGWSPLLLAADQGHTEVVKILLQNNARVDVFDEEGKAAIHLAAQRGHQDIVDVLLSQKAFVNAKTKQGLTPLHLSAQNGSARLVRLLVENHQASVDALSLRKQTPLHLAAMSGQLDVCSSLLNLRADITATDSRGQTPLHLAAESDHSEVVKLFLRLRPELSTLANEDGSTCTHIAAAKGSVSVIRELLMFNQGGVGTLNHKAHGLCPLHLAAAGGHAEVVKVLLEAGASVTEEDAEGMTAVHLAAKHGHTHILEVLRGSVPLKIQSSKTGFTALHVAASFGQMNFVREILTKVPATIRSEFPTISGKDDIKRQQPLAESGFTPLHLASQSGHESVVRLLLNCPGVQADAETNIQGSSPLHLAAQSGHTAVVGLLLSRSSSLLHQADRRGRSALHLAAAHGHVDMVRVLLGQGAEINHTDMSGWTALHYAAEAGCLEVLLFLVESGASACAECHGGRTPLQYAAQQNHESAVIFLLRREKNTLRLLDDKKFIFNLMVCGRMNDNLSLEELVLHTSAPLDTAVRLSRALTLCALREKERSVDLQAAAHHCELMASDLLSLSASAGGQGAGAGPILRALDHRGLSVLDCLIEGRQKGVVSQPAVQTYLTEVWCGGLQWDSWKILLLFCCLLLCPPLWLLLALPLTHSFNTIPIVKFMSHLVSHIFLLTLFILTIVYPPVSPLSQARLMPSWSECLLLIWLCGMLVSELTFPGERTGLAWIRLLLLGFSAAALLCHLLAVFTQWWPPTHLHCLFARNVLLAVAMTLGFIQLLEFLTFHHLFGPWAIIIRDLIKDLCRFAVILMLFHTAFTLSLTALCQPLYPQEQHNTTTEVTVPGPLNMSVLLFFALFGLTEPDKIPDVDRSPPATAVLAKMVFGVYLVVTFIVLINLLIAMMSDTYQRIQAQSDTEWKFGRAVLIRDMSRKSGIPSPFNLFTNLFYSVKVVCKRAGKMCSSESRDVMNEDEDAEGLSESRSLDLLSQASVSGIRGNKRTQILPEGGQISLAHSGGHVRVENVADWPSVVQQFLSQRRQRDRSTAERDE
Sequence of Genome polyprotein (P29990 2492-3391 limits assumed): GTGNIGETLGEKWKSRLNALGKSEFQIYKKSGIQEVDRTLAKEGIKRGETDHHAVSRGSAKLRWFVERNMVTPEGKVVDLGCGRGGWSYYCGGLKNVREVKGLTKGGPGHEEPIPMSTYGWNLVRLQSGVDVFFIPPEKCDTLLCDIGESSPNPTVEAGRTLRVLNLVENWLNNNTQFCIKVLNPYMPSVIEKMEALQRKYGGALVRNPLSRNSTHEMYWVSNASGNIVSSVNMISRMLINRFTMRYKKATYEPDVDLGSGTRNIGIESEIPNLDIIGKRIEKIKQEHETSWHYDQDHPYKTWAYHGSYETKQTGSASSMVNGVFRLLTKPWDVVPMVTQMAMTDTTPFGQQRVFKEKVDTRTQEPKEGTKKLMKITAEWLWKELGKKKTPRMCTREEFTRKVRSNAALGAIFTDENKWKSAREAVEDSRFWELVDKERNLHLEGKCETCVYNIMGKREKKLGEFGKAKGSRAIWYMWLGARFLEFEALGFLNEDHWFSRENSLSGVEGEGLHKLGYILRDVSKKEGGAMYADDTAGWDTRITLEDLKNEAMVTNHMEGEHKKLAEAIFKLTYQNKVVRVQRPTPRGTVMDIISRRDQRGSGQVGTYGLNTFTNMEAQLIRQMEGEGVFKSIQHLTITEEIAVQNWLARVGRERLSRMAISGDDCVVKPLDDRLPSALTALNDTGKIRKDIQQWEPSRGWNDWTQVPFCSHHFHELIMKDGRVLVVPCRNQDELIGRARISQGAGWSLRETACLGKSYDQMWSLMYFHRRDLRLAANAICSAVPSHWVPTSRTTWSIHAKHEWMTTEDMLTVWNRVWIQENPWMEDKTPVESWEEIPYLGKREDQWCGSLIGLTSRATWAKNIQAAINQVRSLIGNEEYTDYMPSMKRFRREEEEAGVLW

Take `O=C(NCCN1CCC2(CC1)C(=O)NCN2c1cccc(Br)c1)c1ccc2ccccc2c1`: the IC50 on Phospholipase D1 is 4.6 µM (active); at Phospholipase D2, 0.68 µM (active).

Regarding `O=[N+]([O-])c1ccc(Oc2ccc(S(=O)(=O)Nc3ccccc3)cc2)cc1`, the values for the EC50 on Ion channel NompC and at Mucolipin-3 were > 29.9 µM (inactive) and > 29.9 µM (not active), respectively.

Turning to `O=C(c1ccc(Cl)cc1)N(CCN1CCC(n2c(=O)[nH]c3ccccc32)CC1)C(=O)c1ccc(Cl)cc1`, the values for the IC50 at Phospholipase D1 and at Phospholipase D2 were 0.21 µM (active) and 2.7 µM (active), respectively.

In the case of `O=C1C(Cl)=C(Nc2ccc3c[nH]nc3c2)C(=O)c2ccccc21`, the EC50 was 0.928 µM (active) in assay [1] and 15.1 µM (active) in the assay with Streptococcus. Also, the CC50 in the assay with Vero was 9.81 µM (active); in [2] it was 2.49 µM (active). For the same molecule, the AC50 in the assay with INS1 is 3.56 µM (active).

Take `CNS(=O)(=O)c1cccc(C(=O)OCC(=O)c2cc3ccccc3o2)c1`: on Beta-galactosidase, the EC50 is > 40 µM (inactive). Besides, the concentration for half-maximal inhibition (IC50) in [3] was 15.5 µM (active).

On to `S=C(NCCCc1ccccc1)Nc1ccccc1Cl`, for which the values for the EC50 on Ion channel NompC and on Mucolipin-3 were > 29.9 µM (inactive) and > 29.9 µM (not active), respectively.

Take `Cc1ccc(-n2c3nc(=O)[nH]c(=O)c-3cc3cc([N+](=O)[O-])ccc32)cc1`: the IC50 at Hexokinase HKDC1 was 10.3 µM (active); at Genome polyprotein, 22.9 µM (active); in assay [4] it was > 128 µM (inactive). Besides, the CC50 in the assay with Vero was > 40 µM (active).

In the case of `O=C1c2cccc3c([N+](=O)[O-])ccc(c23)C(=O)N1c1ccc(Cl)cn1`, the EC50 on Beta-galactosidase is > 40 µM (inactive); in assay [5], 1.58 µM (active); in assay [6] it was 0.905 µM (active). In addition, the figures for the IC50 (in assay [3]; in the assay “cells”) were 15.5 µM (active) and 8.7 µM (active), respectively. In addition, the CC50 in assay [7] was 1.34 µM (active); in assay [8], 10.1 µM (active).

Regarding `COC(=O)Cn1c(CCC(=O)O)ccc1-c1ccccc1`, the AC50 on CAAX prenyl protease 2 is 32.7 µM (active).

As for `O=C(NCCN1CCC(n2c(=O)[nH]c3ccccc32)CC1)NCc1cccc(F)c1`, the IC50 on Phospholipase D1 was 0.107 µM (active); on Phospholipase D2, 1.8 µM (active).

(Values after ChEMBL document CHEMBL1201862, “PubChem BioAssay data set” (2004).)
